Assay results as given in article PMC10257519 (European journal of medicinal chemistry, 2022).
Where two headings read alike, the source gives them in different places. Values belong to the molecule of their own block, whether it stands above or below them.

Tests used:
[1] = system: NCI 60 cell lines; assay: NCI 60 cell five-dose assay; assay type: cell-based; conditions: read-out: TGI (μM)
[2] = S9 fraction metabolic stability assay; assay type: in vitro ADME, human; conditions: 0.02 mM substrate, NADPH, 37 °C, monitored over 2 h
[3] = system: HCT116 human colon cancer cells; assay: Cell growth inhibition / viability assay
[4] = reported earlier; cited from earlier work
[5] = system: PARP1 cleavage in HCT116 cells; assay: Western blot analysis of PARP1 cleavage; assay type: cell-based, human; conditions: HCT116 cells treated for 24 h
[6] = system: human retinal pigment epithelial RPE cells; assay: Cell viability assay on normal cells; conditions: at a maximum concentration of 30 μM
[7] = system: acetyl–H3 and pan acetyl–lysine; assay: Hyperacetylation assay by Western blot; assay type: cell-based, human; conditions: 5 and 10 μM
[8] = Homo sapiens, HCT-116, read-out: IC50 ± SD (μM) (n = 3) on HCT116 cell line

Molecule: O=C(CCCCCCNC(=O)C(O)(O)C(F)(F)F)Nc1ncc(-c2ccccc2)s1 [Compound 58, N-(5-phenylthiazol-2-yl)-7-(3,3,3-trifluoro-2,2-dihydroxypropanamido)heptanamide]
IC (TGI) [1]: 17 µM

disappearance of the M+1 peak in S9 fraction [2]: did not disappear over 2 h
Molecule: O=C(CCCCCCNC(=O)C(O)(O)C(F)(F)F)Nc1nccs1 [Compound 60, N-(thiazol-2-yl)-7-(3,3,3-trifluoro-2,2-dihydroxypropanamido) heptanamide]

IC50 [3, 8]: 7.56 ± 0.73 µM
Molecule: O=C(CCCCCCNC(=O)C(O)(O)C(F)(F)F)Nc1nc2ccc(Br)cc2o1 [Compound 80, N-(6-bromobenzo[d]oxazol-2-yl)-7-(3,3,3-trifluoro-2,2-dihydroxypropanamido)heptanamide]

Molecule: O=C(CCCCCCC(=O)C(F)(F)F)Nc1ccccc1 [Compound 91]
half-life [4]: less than 30 min

Molecule: COc1ccc2sc(NC(=O)CCCCCCNC(=O)C(O)(O)C(F)(F)F)nc2c1 [Compound 83, N-(5-methoxybenzo[d]thiazol-2-yl)-7-(3,3,3-trifluoro-2,2-dihydroxypropanamido)heptanamide]
cleaved PARP1 (Western blot) [5]: Dose-dependent elevation

IC50 [3, 8]: 3.45 ± 0.36 µM
Molecule: COc1cc(NC(=O)CCCCCCNC(=O)C(O)(O)C(F)(F)F)cc(OC)c1OC [Compound 71, 7-(3,3,3-trifluoro-2,2-dihydroxypropanamido)-N-(3,4,5-trimethoxyphenyl)heptanamide]

Molecule: O=C(CCCCCCNC(=O)C(O)(O)C(F)(F)F)Nc1ncc(-c2ccc(Br)cc2)s1 [Compound 85, N-(5-(4-bromophenyl)thiazol-2-yl)-7-(3,3,3-trifluoro-2,2-dihydroxypropanamido)heptanamide]
cleaved PARP1 (Western blot) [5]: Dose-dependent elevation

Molecule: COc1ccc(NC(=O)CCCCCCNC(=O)C(O)(O)C(F)(F)F)cc1 [Compound 55, N-(4-methoxyphenyl)-7-(3,3,3-trifluoro-2,2-dihydroxypropanamido)heptanamide]
cell survival, RPE [6]: more than 50%

HCT116 IC50 ([3]; zinc-binding group screening, maximum concentration of 100 μM): inactive
Molecule: OC(O)(c1c(F)c(F)c(-n2cc(-c3ccccc3)nn2)c(F)c1F)C(F)(F)F [Compound 89]

Molecule: N-phenyl-6-(3,3,3-trifluoro-2,2-dihydroxypropanamido)hexanamide [Compound 10b]
IC50 ([3]; read-out: IC50 (μM) HCT116, effect of linker length, linker length n = 3–7): 54.4 ± 6.02 µM

Molecule: COc1ccc(-c2cnc(NC(=O)CCCCCCNC(=O)C(O)(O)C(F)(F)F)s2)cc1 [Compound 84, N-(5-(4-methoxyphenyl)thiazol-2-yl)-7-(3,3,3-trifluoro-2,2-dihydroxypropanamido)heptanamide]
cleaved PARP1 (Western blot) [5]: Absence of PARP1 cleavage | levels of acetylated H3 (Western blot) [7]: increased levels | levels of pan-acetyl-lysine (Western blot) [7]: increased levels
